From PubChem BioAssay (NCI)
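Cells were grown in 96-well plates and exposed to each compound for 48 hours at five concentrations; endpoints were interpolated linearly between bracketing concentrations, or set to the highest concentration if not reached. GI50 marks 50% less growth. TGI denotes the concentration required for complete inhibition of growth.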

Columns and labels:
Assay in all cases: NCI-60 cell line screen, 48 h
[1] = test system: OVCAR-4 ovarian
[2] = test system: SW-620 colon
[3] = test system: HCT-116 colon
[4] = test system: EKVX NSCLC
[5] = test system: KM12 colon
[6] = test system: HS 578T breast
[7] = test system: NCI-H460 lung
[8] = test system: MDA-MB-435
[9] = test system: HCC-2998 colon
[10] = test system: SK-MEL-28 melanoma

| Structure (SMILES) | TGI [1] | TGI [2] | TGI [3] | TGI [4] | TGI [5] | TGI [6] | TGI [7] | TGI [8] | TGI [9] | TGI [10] | GI50 [8] | GI50 [9] | GI50 [10] |
| --- | --- | --- | --- | --- | --- | --- | --- | --- | --- | --- | --- | --- | --- |
| CCCCC[C@@H]1OC(=O)[C@@]2(CC3c4ccccc4C2c2ccccc23)[C@H]1C(=O)OC | > 100 µM | > 100 µM | > 100 µM | > 100 µM | > 100 µM | > 100 µM | > 100 µM | > 100 µM | > 100 µM |  |  |  |  |
| Cc1ccc(NC(=O)NC23CC4CC(CC(F)(C4)C2)C3)cc1 |  | > 100 µM | > 100 µM | > 100 µM | > 100 µM |  | > 100 µM |  | > 100 µM | > 100 µM |  |  |  |
| CC(=O)Nc1[nH]c(=O)[nH]c(=O)c1N(C(C)=O)C(C)=O | > 100 µM | > 100 µM | > 100 µM | > 100 µM | > 100 µM |  | > 100 µM |  | > 100 µM | > 100 µM |  |  |  |
| C=C1C(=O)OC2C1CC1OC2C(C)CCC/C(C)=C\CCC1(C)O (stereo unspecified) | 56.6 µM | 32.6 µM | 41 µM | 79.4 µM | 59 µM |  | 60.9 µM |  | 63.5 µM | 43.1 µM |  |  |  |
| O=C(NNc1ccc([N+](=O)[O-])cc1)C1OC(CO)C(O)C1O (stereo unspecified) | > 100 µM | 71.3 µM | > 100 µM | > 100 µM | > 100 µM |  | > 100 µM |  | > 100 µM | > 100 µM |  |  |  |
| O=c1c2cc(Cl)ccc2n2nnc3ccc(NCCNCCO)c1c32 | 2.52 µM | 2.51 µM | 2.33 µM | 4.44 µM | 3.48 µM |  | 1.58 µM | 2.36 µM | 2.7 µM | 3.26 µM |  |  |  |
| Brc1ccc2[nH]cc(-c3nc(-c4c[nH]c5ccncc45)cs3)c2c1 |  |  |  |  |  |  |  | 3.06 µM | 3.6 µM | 3.13 µM | 1660 nM | 1980 nM | 1730 nM |
| C#Cc1ccccc1C(=O)OC | > 100 µM | > 100 µM | > 100 µM | > 100 µM | > 100 µM |  | > 100 µM |  | > 100 µM | > 100 µM |  |  |  |
| CC1Oc2c(c(O)cc3oc(=O)cc(-c4ccccc4)c23)C(=O)C1C (stereo unspecified) |  | > 100 µM |  | > 100 µM |  |  | > 100 µM |  |  | > 100 µM |  |  |  |
| CN(CCc1ccccn1)C(=S)N/N=C/c1ccccn1 | 21.4 µM | > 100 µM |  |  | 17.1 µM | > 87.2 µM | 2.07 µM | 38.1 µM | 37.7 µM | > 100 µM |  |  |  |
| Cn1c(=O)c2[nH]cnc2n(C)c1=O |  | > 100 µM | > 100 µM | > 100 µM | > 100 µM | > 100 µM | > 100 µM |  | > 100 µM | > 100 µM |  |  |  |
| O=C(O)C1(Cc2ccc3c(c2)CCC3)Cc2cc3c(cc2C1)CCC3 | > 100 µM | > 100 µM | > 100 µM | > 100 µM | > 100 µM | > 100 µM |  | > 100 µM | > 100 µM | > 100 µM |  |  |  |
| Cc1cccc(/C=N/NC(=S)NC(C)(C)C)n1 | > 100 µM | > 100 µM | > 100 µM |  | > 100 µM | > 100 µM | > 100 µM | > 100 µM | > 100 µM | > 100 µM |  |  |  |
| CC(=O)Nc1oc(C)nc1C#N | > 100 µM | > 100 µM | > 100 µM | > 100 µM | > 100 µM | > 100 µM |  | > 100 µM |  | > 100 µM |  |  |  |
| CC[N+]1(C)CCC(O)(/C=C/c2ccc(Cl)c(Cl)c2)C(C(=O)/C=C/c2ccc(Cl)c(Cl)c2)C1 (stereo unspecified) |  | 4.47 µM | 3 µM | 23.3 µM | 6.69 µM | 7.66 µM | 9.03 µM | 5.01 µM | 3.96 µM | 4.37 µM |  |  |  |
| O=C(c1ccccc1)c1ccc2c(c1)N=C(c1ccc(Cl)c(Cl)c1)CC(c1ccc3ccccc3c1)N2 (stereo unspecified) | > 100 µM | > 100 µM | > 100 µM | > 100 µM | > 100 µM |  | > 100 µM |  | > 100 µM | > 100 µM |  |  |  |
| CN(c1ccccc1)c1c(-c2ccccc2)c(=O)oc2c1ccc1occc12 | > 100 µM | > 100 µM | > 100 µM | > 100 µM | > 100 µM |  | > 100 µM |  | > 100 µM | > 100 µM |  |  |  |
| Cc1ccc(N=Nc2cc(=O)[nH]c(=O)[nH]2)cc1C | 31.8 µM | 14.9 µM | 22.5 µM | 34.7 µM | 24.5 µM |  | 41.6 µM | 26.8 µM | 19.9 µM | 34.3 µM |  |  |  |
| CC(C)=CCC/C(C)=C/CCC1(C)C2COC(=O)C21 (stereo unspecified) | > 100 µM | > 100 µM | > 100 µM | > 100 µM | > 100 µM |  | > 100 µM | > 100 µM | > 100 µM | > 100 µM |  |  |  |
| CCCCN=C(OC1C=CCCC1)SC (stereo unspecified) | > 100 µM | > 100 µM | > 100 µM | > 100 µM |  |  |  | > 100 µM | > 100 µM | > 100 µM |  |  |  |
| CC(=O)N/N=C1\NN(C(C)=O)C2(S1)C(=O)Nc1ccccc12 (stereo unspecified) | > 100 µM | > 100 µM | > 100 µM | > 100 µM | > 100 µM |  | > 100 µM | > 100 µM | > 100 µM | > 100 µM |  |  |  |
| CC12CC(=O)NN=C1c1ccccc1C2 (stereo unspecified) |  | > 100 µM | > 100 µM | > 100 µM | > 100 µM |  | > 100 µM |  | > 100 µM | > 100 µM |  |  |  |
| COC(=O)C[C@H]1[C@]2(C)C3=C(C)[C@H](c4ccoc4)CC3O[C@@H]2[C@@H]2OC(=O)[C@]3(C)CCC(=O)[C@@]1(C)[C@@H]23 (stereo partly specified) | > 100 µM | > 100 µM | > 100 µM |  | > 100 µM | > 100 µM | > 100 µM | > 100 µM |  | > 100 µM |  |  |  |
| C=CC(=O)N1C/C(=C\c2ccc(F)cc2)C(=O)/C(=C/c2ccc(F)cc2)C1 | 1.85 µM | > 100 µM | 0.105 µM | 3.88 µM | 0.434 µM | 0.876 µM | 2.04 µM | 1.29 µM | 1.15 µM |  |  |  |  |
| CCn1c2ccccc2c2cc(NC(=O)c3c(C)[nH]c(=O)[nH]c3=S)ccc21 | > 100 µM | > 100 µM | > 100 µM |  | 64.5 µM | > 100 µM | > 100 µM | 84 µM | > 100 µM | > 100 µM |  |  |  |
